# Experimental data from US9758485B2, “Compounds for controlling arthropods” (priority 2013, dated 2017).
# Tested on: not listed separately
# Assay: logP determination by HPLC on a reversed-phase column (C18), EEC Directive 79/831 Annex V.A8
# Type: physicochemical
# Details: HPLC-MS method a), Table I-T3
row,Structure (SMILES),logP^a)
1,CCc1cc(C(F)(C(F)(F)F)C(F)(F)F)ccc1-n1cc(-c2ccc(Cl)c(C(=O)NC3(C#N)CC3)c2)cn1 [I-T3-38],4.5
2,CCc1cc(C(F)(C(F)(F)F)C(F)(F)F)cc(C)c1-n1cc(-c2ccc(Cl)c(C(=O)NC3(C#N)CC3)c2)cn1 [I-T3-46],4.6
3,CCc1cc(C(F)(C(F)(F)F)C(F)(F)F)cc(C)c1-n1cc(-c2ccc(Cl)c(C(=O)NC3CSC3)c2)cn1 [I-T3-47],5.0
4,O=C(NC1CC1)c1cc(-c2cnn(-c3ccc(C(F)(C(F)(F)F)C(F)(F)F)cc3C(F)(F)F)c2)ccc1Cl [I-T3-52],4.3
5,CCc1cc(C(F)(F)C(F)(F)F)cc(C)c1-n1cc(-c2ccc(Cl)c(C(=O)NC3(C#N)CC3)c2)cn1 [I-T3-80],4.2

# Tested on: Rhipicephalus sanguineus
# Assay: Rhipicephalus sanguineus - in vitro contact tests with adult brown dog ticks
# Type: in vivo
# Details: application rate 5 μg/cm^2, after 48 h (dead or moribund)
# Description: Rhipicephalus sanguineus—In Vitro Contact Tests with Adult Brown Dog Ticks
# (§1) For the coating of the test tubes, 9 mg of active ingredient are first dissolved in 1 ml of acetone p.a. and then diluted to the desired concentration with acetone p.a. 250 μl of the solution are distributed homogeneously on the inner walls and base of a 25 ml test tube by turning and rocking on an orbital shaker (rocking rotation at 30 rpm for 2 h). With 900 ppm active ingredient solution and internal surface 44.7 cm^2, given homogeneous distribution, an area-based dose of 5 μg/cm^2 is achieved.
# After the solvent has evaporated off, the tubes are populated with 5-10 adult dog ticks (Rhipicephalus sanguineus), sealed with a perforated plastic lid and incubated in a horizontal position in the dark at room temperature and ambient humidity. After 48 h, efficacy is determined. To this end, the ticks are knocked to the floor of the tube and incubated on a hotplate at 45-50° C. for not more than 5 min. Ticks which remain motionless on the floor or move in such an uncoordinated manner that they are unable to deliberately avoid the heat by climbing upwards are considered to be dead or moribund.
# An efficacy of 100% means that all the ticks were dead or moribund. 0% efficacy means that none of the ticks had been harmed.
row,Structure (SMILES),efficacy [%]
1,CCc1cc(C(F)(C(F)(F)F)C(F)(F)F)ccc1-n1cc(-c2ccc(Cl)c(C(=O)NC3(C#N)CC3)c2)cn1 [I-T3-38],80
2,CCc1cc(C(F)(C(F)(F)F)C(F)(F)F)cc(C)c1-n1cc(-c2ccc(Cl)c(C(=O)NC3(C#N)CC3)c2)cn1 [I-T3-46],100
3,CCc1cc(C(F)(C(F)(F)F)C(F)(F)F)cc(C)c1-n1cc(-c2ccc(Cl)c(C(=O)NC3CSC3)c2)cn1 [I-T3-47],100
4,O=C(NC1CC1)c1cc(-c2cnn(-c3ccc(C(F)(C(F)(F)F)C(F)(F)F)cc3C(F)(F)F)c2)ccc1Cl [I-T3-52],100
5,CCc1cc(C(F)(F)C(F)(F)F)cc(C)c1-n1cc(-c2ccc(Cl)c(C(=O)NC3(C#N)CC3)c2)cn1 [I-T3-80],80

# Tested on: Ctenocephalides felis
# Assay: Ctenocephalides felis - in vitro contact tests with adult cat fleas
# Type: in vivo
# Details: application rate 5 μg/cm^2 (=500 g/ha), after 48 h (dead or moribund)
# Description: Ctenocephalides felis—In Vitro Contact Tests with Adult Cat Fleas
# as §1, with “surface area” for “surface”
# After the solvent has evaporated off, the tubes are populated with 5-10 adult cat fleas (Ctenocephalides felis), sealed with a perforated plastic lid and incubated in a horizontal position at room temperature and ambient humidity. After 48 h, efficacy is determined. To this end, the test tubes are stood upright and the fleas are knocked to the base of the tube. Fleas which remain motionless at the base or move in an uncoordinated manner are considered to be dead or moribund.
# 100% efficacy means that all the fleas were dead or moribund. 0% efficacy means that no fleas were harmed.
row,Structure (SMILES),efficacy [%]
1,CCc1cc(C(F)(C(F)(F)F)C(F)(F)F)cc(C)c1-n1cc(-c2ccc(Cl)c(C(=O)NC3(C#N)CC3)c2)cn1 [I-T3-46],100
2,CCc1cc(C(F)(F)C(F)(F)F)cc(C)c1-n1cc(-c2ccc(Cl)c(C(=O)NC3(C#N)CC3)c2)cn1 [I-T3-80],100

# Tested on: Boophilus microplus
# Assay: Boophilus microplus - injection test
# Type: in vivo
# Details: application rate 20 μg/animal; injected into engorged adult female ticks; laying of fertile eggs, after 7 days
# How it was run: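 Read-out is % efficacy from fertile egg laying at 7 days: 100% means no tick laid fertile eggs, 0% means all eggs fertile. Each of 5 engorged adult females received 1 μl of DMSO test solution injected abdominally.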
row,Structure (SMILES),efficacy [%]
1,CCc1cc(C(F)(C(F)(F)F)C(F)(F)F)ccc1-n1cc(-c2ccc(Cl)c(C(=O)NC3(C#N)CC3)c2)cn1 [I-T3-38],100
2,CCc1cc(C(F)(C(F)(F)F)C(F)(F)F)cc(C)c1-n1cc(-c2ccc(Cl)c(C(=O)NC3(C#N)CC3)c2)cn1 [I-T3-46],100
3,CCc1cc(C(F)(C(F)(F)F)C(F)(F)F)cc(C)c1-n1cc(-c2ccc(Cl)c(C(=O)NC3CSC3)c2)cn1 [I-T3-47],100
4,O=C(NC1CC1)c1cc(-c2cnn(-c3ccc(C(F)(C(F)(F)F)C(F)(F)F)cc3C(F)(F)F)c2)ccc1Cl [I-T3-52],100
5,CCc1cc(C(F)(F)C(F)(F)F)cc(C)c1-n1cc(-c2ccc(Cl)c(C(=O)NC3(C#N)CC3)c2)cn1 [I-T3-80],100

# Tested on: Boophilus microplus Parkhurst strain, SP-resistant
# Assay: Boophilus microplus - dip test
# Type: in vivo
# Details: application rate 100 ppm; dip of engorged adult female ticks; laying of fertile eggs, after 7 days
# Description: Boophilus microplus—Dip Test
# Test animals: cattle ticks (Boophilus microplus) Parkhurst strain, SP-resistant
# (§2) Solvent: dimethyl sulphoxide
# 10 mg of active ingredient are dissolved in 0.5 ml of dimethyl sulphoxide. For the purpose of producing a suitable formulation, the active ingredient solution is diluted with water to the concentration desired in each case.
# This active ingredient formulation is pipetted into tubes. 8-10 adult engorged female cattle ticks (Boophilus microplus) are transferred into a further tube with holes. The tube is immersed into the active ingredient formulation, and all the ticks are completely wetted. After the liquid has run out, the ticks are transferred on filter discs into plastic dishes and stored in a climate-controlled room.
# Efficacy is assessed after 7 days by laying of fertile eggs. Eggs which are not visibly fertile are stored in a climate-controlled cabinet until the larvae hatch after about 42 days. An efficacy of 100% means that none of the ticks has laid any fertile eggs; 0% means that all the eggs are fertile.
row,Structure (SMILES),efficacy [%]
1,CCc1cc(C(F)(F)C(F)(F)F)cc(C)c1-n1cc(-c2ccc(Cl)c(C(=O)NC3(C#N)CC3)c2)cn1 [I-T3-80],80

# Tested on: Ctenocephalides felis
# Assay: Ctenocephalides felis - oral test
# Type: in vivo
# Details: application rate 100 ppm in citrated cattle blood; adult fleas; kill after 2 days
# How it was run: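 Percentage mortality recorded at 2 days, where 0% means no fleas killed. Compound dissolved in DMSO and diluted in citrated cattle blood, which roughly 20 unfed adult C. felis imbibe via a parafilm membrane.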
row,Structure (SMILES),efficacy [%]
1,CCc1cc(C(F)(C(F)(F)F)C(F)(F)F)ccc1-n1cc(-c2ccc(Cl)c(C(=O)NC3(C#N)CC3)c2)cn1 [I-T3-38],100
2,CCc1cc(C(F)(C(F)(F)F)C(F)(F)F)cc(C)c1-n1cc(-c2ccc(Cl)c(C(=O)NC3(C#N)CC3)c2)cn1 [I-T3-46],100
3,CCc1cc(C(F)(C(F)(F)F)C(F)(F)F)cc(C)c1-n1cc(-c2ccc(Cl)c(C(=O)NC3CSC3)c2)cn1 [I-T3-47],100
4,O=C(NC1CC1)c1cc(-c2cnn(-c3ccc(C(F)(C(F)(F)F)C(F)(F)F)cc3C(F)(F)F)c2)ccc1Cl [I-T3-52],100
5,CCc1cc(C(F)(F)C(F)(F)F)cc(C)c1-n1cc(-c2ccc(Cl)c(C(=O)NC3(C#N)CC3)c2)cn1 [I-T3-80],100

# Tested on: Lucilia cuprina
# Assay: Lucilia cuprina test
# Type: in vivo
# Details: application rate 100 ppm; L1 larvae in minced horsemeat; kill after 2 days
# How it was run: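 Mortality (%) of first-instar blowfly larvae, about 20 per vessel, recorded 2 days after exposure to compound-treated minced horsemeat. Compound dissolved in dimethyl sulphoxide, then water-diluted to the desired concentration.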
row,Structure (SMILES),efficacy [%]
1,CCc1cc(C(F)(C(F)(F)F)C(F)(F)F)ccc1-n1cc(-c2ccc(Cl)c(C(=O)NC3(C#N)CC3)c2)cn1 [I-T3-38],100
2,CCc1cc(C(F)(C(F)(F)F)C(F)(F)F)cc(C)c1-n1cc(-c2ccc(Cl)c(C(=O)NC3(C#N)CC3)c2)cn1 [I-T3-46],100
3,CCc1cc(C(F)(C(F)(F)F)C(F)(F)F)cc(C)c1-n1cc(-c2ccc(Cl)c(C(=O)NC3CSC3)c2)cn1 [I-T3-47],100
4,O=C(NC1CC1)c1cc(-c2cnn(-c3ccc(C(F)(C(F)(F)F)C(F)(F)F)cc3C(F)(F)F)c2)ccc1Cl [I-T3-52],100
5,CCc1cc(C(F)(F)C(F)(F)F)cc(C)c1-n1cc(-c2ccc(Cl)c(C(=O)NC3(C#N)CC3)c2)cn1 [I-T3-80],100

# Tested on: Musca domestica
# Assay: Musca domestica test
# Type: in vivo
# Details: application rate 100 ppm; adult houseflies; kill after 2 days
# Description: as §2
# To produce an appropriate active ingredient formulation, 10 mg of active ingredient are mixed with 0.5 ml of dimethyl sulphoxide, and the concentrate is diluted with water to the desired concentration.
# Vessels containing a sponge treated with sugar solution and the active ingredient formulation of the desired concentration are populated with 10 adult houseflies (Musca domestica).
# After 2 days, the kill in % is determined. 100% means that all of the flies have been killed; 0% means that none of the flies have been killed.
row,Structure (SMILES),efficacy [%]
1,CCc1cc(C(F)(C(F)(F)F)C(F)(F)F)ccc1-n1cc(-c2ccc(Cl)c(C(=O)NC3(C#N)CC3)c2)cn1 [I-T3-38],100
2,CCc1cc(C(F)(C(F)(F)F)C(F)(F)F)cc(C)c1-n1cc(-c2ccc(Cl)c(C(=O)NC3(C#N)CC3)c2)cn1 [I-T3-46],100
3,O=C(NC1CC1)c1cc(-c2cnn(-c3ccc(C(F)(C(F)(F)F)C(F)(F)F)cc3C(F)(F)F)c2)ccc1Cl [I-T3-52],100
4,CCc1cc(C(F)(F)C(F)(F)F)cc(C)c1-n1cc(-c2ccc(Cl)c(C(=O)NC3(C#N)CC3)c2)cn1 [I-T3-80],100
